Test results as given in ChEMBL document CHEMBL3627624, “New natural product carbonic anhydrase inhibitors incorporating phenol moieties” (Bioorg Med Chem, 2015).

Assays:
Carbonic anhydrase 12 [1] = target: T1, Carbonic anhydrase 12 (Homo sapiens, UniProt O43570); assay: Inhibition of human recombinant carbonic anhydrase 12 preincubated for 15 mins at room temperature/6 hrs at 4 deg C by stopped-flow CO2 hydration assay
Carbonic anhydrase 1 [2] = target: T2, Carbonic anhydrase 1 (Homo sapiens, UniProt P00915); assay: Inhibition of human recombinant carbonic anhydrase 1 preincubated for 15 mins at room temperature/6 hrs at 4 deg C by stopped-flow CO2 hydration assay
T2 sequence (P00915 whole entry): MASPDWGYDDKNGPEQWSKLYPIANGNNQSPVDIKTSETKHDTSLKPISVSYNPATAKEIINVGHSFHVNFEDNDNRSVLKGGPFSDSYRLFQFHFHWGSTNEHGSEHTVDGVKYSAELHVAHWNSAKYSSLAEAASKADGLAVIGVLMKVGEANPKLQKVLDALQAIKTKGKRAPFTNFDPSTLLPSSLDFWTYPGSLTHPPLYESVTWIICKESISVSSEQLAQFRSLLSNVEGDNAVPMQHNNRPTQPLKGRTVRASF

Carbonic anhydrase 7 = Carbonic anhydrase 7 (Homo sapiens, UniProt P43166); assay: Inhibition of human recombinant carbonic anhydrase 7 preincubated for 15 mins at room temperature/6 hrs at 4 deg C by stopped-flow CO2 hydration assay
Carbonic anhydrase 7, sequence (P43166 whole entry): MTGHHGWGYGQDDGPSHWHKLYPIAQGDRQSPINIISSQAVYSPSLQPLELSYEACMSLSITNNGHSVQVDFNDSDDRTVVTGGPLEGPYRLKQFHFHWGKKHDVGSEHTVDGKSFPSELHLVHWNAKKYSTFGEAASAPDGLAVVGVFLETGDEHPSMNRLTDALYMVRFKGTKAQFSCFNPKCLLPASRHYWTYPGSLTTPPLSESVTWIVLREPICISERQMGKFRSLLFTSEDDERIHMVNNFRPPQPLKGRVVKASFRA

Carbonic anhydrase 2 [3] = target: T3, Carbonic anhydrase 2 (Homo sapiens, UniProt P00918); assay: Inhibition of human recombinant carbonic anhydrase 2 preincubated for 15 mins at room temperature/6 hrs at 4 deg C by stopped-flow CO2 hydration assay
Carbonic anhydrase 4 [4] = target: T4, Carbonic anhydrase 4 (Homo sapiens, UniProt P22748); assay: Inhibition of human recombinant carbonic anhydrase 4 preincubated for 15 mins at room temperature/6 hrs at 4 deg C by stopped-flow CO2 hydration assay
T4 sequence (P22748 whole entry): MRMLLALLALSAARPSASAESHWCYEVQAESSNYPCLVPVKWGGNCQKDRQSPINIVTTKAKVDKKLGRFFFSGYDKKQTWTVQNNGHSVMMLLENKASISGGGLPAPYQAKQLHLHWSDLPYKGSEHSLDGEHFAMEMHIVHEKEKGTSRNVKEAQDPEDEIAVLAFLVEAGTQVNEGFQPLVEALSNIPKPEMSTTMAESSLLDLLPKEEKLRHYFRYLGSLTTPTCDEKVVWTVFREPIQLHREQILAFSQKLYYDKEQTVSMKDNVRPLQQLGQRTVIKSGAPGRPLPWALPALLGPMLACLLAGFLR

Carbonic anhydrase 12 [5] = target: T1, Carbonic anhydrase 12; assay: Inhibition of human recombinant carbonic anhydrase 12
Carbonic anhydrase 1 [6] = target: T2, Carbonic anhydrase 1; assay: Inhibition of human recombinant carbonic anhydrase 1
Carbonic anhydrase 2 [7] = target: T3, Carbonic anhydrase 2; assay: Inhibition of human recombinant carbonic anhydrase 2
Carbonic anhydrase 4 [8] = target: T4, Carbonic anhydrase 4; assay: Inhibition of human recombinant carbonic anhydrase 4

T1 sequence (O43570 whole entry): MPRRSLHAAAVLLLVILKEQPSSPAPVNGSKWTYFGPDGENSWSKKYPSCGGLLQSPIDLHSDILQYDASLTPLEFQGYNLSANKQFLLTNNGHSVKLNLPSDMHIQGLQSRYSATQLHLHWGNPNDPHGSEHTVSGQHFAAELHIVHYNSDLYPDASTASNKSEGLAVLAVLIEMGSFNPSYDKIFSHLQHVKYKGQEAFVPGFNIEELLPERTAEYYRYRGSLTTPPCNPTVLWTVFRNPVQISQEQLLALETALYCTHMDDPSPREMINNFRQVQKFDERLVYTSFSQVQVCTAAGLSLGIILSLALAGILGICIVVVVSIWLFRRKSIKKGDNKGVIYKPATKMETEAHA

Structure (SMILES)	Ki (Carbonic anhydrase 12 [1]) [nM]	Ki (Carbonic anhydrase 1 [2]) [nM]	Ki (Carbonic anhydrase 7) [nM]	Ki (Carbonic anhydrase 2 [3]) [nM]	Ki (Carbonic anhydrase 4 [4]) [nM]	Ki (Carbonic anhydrase 12 [5]) [nM]	Ki (Carbonic anhydrase 1 [6]) [nM]	Ki (Carbonic anhydrase 2 [7]) [nM]	Ki (Carbonic anhydrase 4 [8]) [nM]
CC(=O)O[C@@H]1[C@@H](OC(=O)/C=C/c2ccc(O)cc2)[C@H](Oc2c(-c3ccc(O)cc3)oc3cc(O)cc(O)c3c2=O)O[C@H](COC(=O)/C=C/c2ccc(O)cc2)[C@H]1OC(C)=O	400	> 10000	26.6	6860	62.2				
COc1ccc(-c2coc3cc(O)cc(O)c3c2=O)cc1 [BIOCHANIN]	52.5	> 10000	372	> 10000	7080				
O=c1cc(-c2ccccc2)oc2cc(O)cc(O)c12 [CHRYSIN]	34.7	> 10000	171	> 10000	538				
O=c1c(-c2ccc(O)cc2)coc2cc(O)ccc12 [DAIDZEIN]	56.4	> 10000	4.2	> 10000	719				
COc1cc(-c2oc3cc(O)cc(O)c3c(=O)c2O)ccc1O [ISORHAMNETIN]	54.9	> 10000	4.4	> 10000	213	220	> 10000	440	
O=c1c(O)c(-c2ccc(O)cc2)oc2cc(O)cc(O)c12 [KAEMPFEROL]	146	> 10000	25	9530	> 10000				
O=C(/C=C/c1ccc(O)c2c1[C@H](C(=O)O)[C@@H](c1ccc(O)c(O)c1)O2)O[C@H](Cc1ccc(O)c(O)c1)C(=O)O [LITHOSPERMIC ACID]		> 10000	268	> 10000	101				
O=c1cc(-c2ccc(O)c(O)c2)oc2cc(O)cc(O)c12 [LUTEOLIN]	60.3	> 10000	4.7	3690					293
O=C1C[C@@H](c2ccc(O)cc2)Oc2cc(O)cc(O)c21 [NARINGENIN]	44.3	> 10000	4.3	> 10000	79.5				
O=c1c(-c2ccc(O)cc2)coc2c([C@@H]3O[C@H](CO)[C@@H](O)[C@H](O)[C@H]3O)c(O)ccc12 [PUERARIN]		> 10000	453	> 10000	> 10000				
C[C@@H]1O[C@@H](Oc2c(-c3ccc(O)c(O)c3)oc3cc(O)cc(O)c3c2=O)[C@H](O)[C@H](O)[C@H]1O [QUERCETIN-3-O-RHAMNOSIDE]	43.5	> 10000	3.9	6370	67.3				
O=C(/C=C/c1ccc(O)cc1)OC[C@H]1O[C@@H](Oc2c(-c3ccc(O)cc3)oc3cc(O)cc(O)c3c2=O)[C@H](O)[C@@H](O)[C@@H]1O [TILIROSIDE]	134	> 10000	4.6	> 10000	5470				

Now from value to compound, other results behind:

Ki (Carbonic anhydrase 12 [1]) [nM]	Ki (Carbonic anhydrase 1 [2]) [nM]	Ki (Carbonic anhydrase 7) [nM]	Ki (Carbonic anhydrase 2 [3]) [nM]	Ki (Carbonic anhydrase 4 [4]) [nM]	Structure (SMILES)	Ki (Carbonic anhydrase 12 [5]) [nM]	Ki (Carbonic anhydrase 1 [6]) [nM]	Ki (Carbonic anhydrase 2 [7]) [nM]	Ki (Carbonic anhydrase 4 [8]) [nM]
409	> 10000	4.7	8790	344	O=C(/C=C/c1ccc(O)cc1)OC[C@H]1O[C@@H](Oc2c(-c3ccc(O)cc3)oc3cc(O)cc(O)c3c2=O)[C@H](OC(=O)/C=C/c2ccc(O)cc2)[C@@H](O)[C@@H]1O				
	> 10000				O=C1c2c(O)cc(O)cc2O[C@H](c2ccc(O)c(O)c2)[C@H]1O [(+)-TAXIFOLIN]				
4.9	> 10000	424	168	5590	O=c1c(O[C@@H]2O[C@H](CO)[C@@H](O)[C@H](O)[C@H]2O)c(-c2ccc(O)cc2)oc2cc(O)cc(O)c12 [ASTRAGALIN]				
31.1	> 10000	4.3	> 10000	72.8	O=C1C[C@@H](c2ccc(O)c(O)c2)Oc2cc(O)cc(O)c21 [ERIODICTYOL]				
41.8	> 10000	24.5	> 10000	568	O=c1c(O)c(-c2ccccc2)oc2cc(O)cc(O)c12 [GALANGIN]				
454	> 10000	3.3	> 10000	102	COc1ccc([C@@H]2CC(=O)c3c(O)cc(O)cc3O2)cc1O [HESPERETIN]				
52.1	> 10000	3.8	6210	75.7	O=c1c(O[C@@H]2O[C@H](CO)[C@@H](O)[C@H](O)[C@H]2O)c(-c2ccc(O)c(O)c2)oc2cc(O)cc(O)c12 [ISOQUERCETIN]	170	> 10000	410	
39.8	> 10000	71.4	9590	66.6	O=C(/C=C/c1ccc(O)c(O)c1/C=C/c1ccc(O)c(O)c1)O[C@H](Cc1ccc(O)c(O)c1)C(=O)O [SALVIANOLIC ACID A]				
